Assay results taken from patent US20110160052A1, “Active Compound Combinations” (Bayer CropScience AG, priority 2007, published 2011).

How the values were obtained:
Type in all cases: in vivo
Nilaparvata lugens = Nilaparvata lugens test (sprayed rice plants); conditions: mortality of hopper larvae on rice
Method: (§1) Solvent: 7 parts by weight of dimethylformamide Emulsifier: 2 parts by weight of alkylaryl polyglycolether
(§2) To produce a suitable preparation of active compound, 1 part by weight of active compound is mixed with the stated amount of solvent and emulsifier, and the concentrate is diluted with emulsifier-containing water to the desired concentration.
Rice plants (Oryza sativa) are treated by being sprayed with the preparation of the active compound at the desired concentration and are infested with larvae of the Brown plant hopper (Nilaparvata lugens) as long as the leaves are still moist.
After the specified period of time, the mortality in % is determined. 100% means that all the hopper larvae have been killed; 0% means that none of the hopper larvae have been killed.

[1] = system: Blumeria graminis f sp. hordei; assay: Blumeria test (barley)/SAR 5d; conditions: 1000 ppm, inoculated 5 days after spraying, evaluated 7 days after inoculation
Method: Solvent: 50 parts by weight of n,n-dimethylacetamid Emulsifier: 1 part by weight of alkylaryl polyglycol ether
To produce a suitable preparation of active compound, 1 part by weight of active compound or active compound combination is mixed with the stated amounts of solvent and emulsifier, and the concentrate is diluted with water to the desired concentration.
To test for systemic activated resistance, young plants are sprayed with the preparation of active compound or active compound combination at the stated rate of application. After the spray coating has dried on, the plants are placed in a greenhouse at a temperature of approximately 18° C. and a relative atmospheric humidity of approximately 80%.
5 days after spraying, the plants are dusted with spores of Blumeria graminis f sp. hordei. The plants then remain in a greenhouse at a temperature of approximately 18° C. and a relative atmospheric humidity of approximately 80% to promote the development of mildew pustules.
The test is evaluated 7 days after the inoculation, 1. and 2. leaf separated. 0% means an efficacy with corresponds to that of the control while an efficacy of 100% means that no disease is observed.

Spodoptera frugiperda = Spodoptera frugiperda test (sprayed cabbage leaves); conditions: mortality of caterpillars on cabbage leaves
Method: as §1, §2
Cabbage leaves (Brassica oleracea) are treated by being sprayed into the preparation of the active compound of the desired concentration and are infested with larvae of the fall army worm (Spodoptera frugiperda) as long as the leaves are still moist.
After the specified period of time, the mortality in % is determined. 100% means that all the caterpillars have been killed; 0% means that none of the caterpillars have been killed.

Phaedon cochleariae = Phaedon cochleariae test (sprayed cabbage leaves); conditions: mortality of beetle larvae on cabbage leaves
Method: as §1, §2
Cabbage leaves (Brassica oleracea) are treated by being sprayed with the preparation of the active compound at the desired concentration and are infested with larvae of the mustard beetle (Phaedon cochleariae) as long as the leaves are still moist.
After the specified period of time, the mortality in % is determined. 100% means that all the beetle larvae have been killed; 0% means that none of the beetle larvae have been killed.

## CC[S+]([O-])c1c(C#N)nn(-c2c(Cl)cc(C(F)(F)F)cc2Cl)c1N (stereo not shown) [Ethiprole, ethiprole]
Nilaparvata lugens; 0.16 ppm
  Efficacy in % after 3d: 0%
[1]; 1st leaf
  Efficacy in %: 22%
[1]; 2nd leaf
  Efficacy in %: 22%

## N#Cc1ccccc1NC(=O)c1snc(Cl)c1Cl [Isotianil, 3,4-dichloro-N-(2-cyanophenyl)-5-isothiazolecarboxamide]
Spodoptera frugiperda; 200 ppm
  Efficacy in % after 6d: 0%

## N#Cc1nn(-c2c(Cl)cc(C(F)(F)F)cc2Cl)c(N)c1[S+]([O-])C(F)(F)F (stereo not shown) [Fipronil, fipronil]
Nilaparvata lugens; 0.032 ppm
  Efficacy in % after 3d: 0%
Nilaparvata lugens; 20 ppm
  Efficacy in % after 3d: 70%
Phaedon cochleariae; 0.032 ppm
  Efficacy in % after 6d: 0%
Spodoptera frugiperda; 8 ppm
  Efficacy in % after 6d: 65%

## CN/C(=N\[N+](=O)[O-])NCc1cnc(Cl)s1 [Clothianidin, clothianidin]
Nilaparvata lugens; 0.032 ppm
  Efficacy in % after 3d: 55%
Nilaparvata lugens; 0.8 ppm
  Efficacy in % after 3d: 70%
Phaedon cochleariae; 0.16 ppm
  Efficacy in % after 6d: 0%
Spodoptera frugiperda; 8 ppm
  Efficacy in % after 6d: 25%

## N#C/N=C1\SCCN1Cc1ccc(Cl)nc1 [Thiacloprid, thiacloprid]
Nilaparvata lugens; 4 ppm
  Efficacy in % after 3d: 0%
